Measured values published in US20150105252A1, “SUBSTITUTED PYRAZOLES AS HERBICIDES” (E I DU PONT DE NEMOURS AND COMPANY, priority 2013, published 2015).

Experiments:
[1] = test system: barnyardgrass; experiment: Test A preemergence; format: in vivo, Echinochloa crus-galli; conditions: 0 to 100 scale
Source text: (§1) Seeds of plant species selected from barnyardgrass (Echinochloa crus-galli), kochia (Kochia scoparia), common ragweed (Ambrosia elation), Italian ryegrass (Lolium multiflorum), crabgrass, large (large crabgrass, Digitaria sanguinalis), foxtail, giant (giant foxtail, Setaria faberii), morningglory (Ipomoea spp.), pigweed (redroot pigweed, Amaranthus retroflexus), velvetleaf (Abutilon theophrasti), wheat (Triticum aestivum), and corn (Zea mays) were planted into a blend of loam soil and sand and treated preemergence with a directed soil spray using test chemicals formulated in a non-phytotoxic solvent mixture which included a surfactant.
(§2) At the same time, plants selected from these crop and weed species and also blackgrass (Alopecurus myosuroides), and galium (catchweed bedstraw, Galium aparine) were planted in pots containing the same blend of loam soil and sand and treated with postemergence applications of test chemicals formulated in the same manner. Plants ranged in height from 2 to 10 cm and were in the one- to two-leaf stage for the postemergence treatment. Treated plants and untreated controls were maintained in a greenhouse for approximately 10 days, after which time all treated plants were compared to untreated controls and visually evaluated for injury. Plant response ratings, summarized in Table A, are based on a 0 to 100 scale where 0 is no effect and 100 is complete control. A dash (-) response means no test result.

[2] = test system: crabgrass, large; experiment: Test A preemergence; format: in vivo, Digitaria sanguinalis; conditions: 0 to 100 scale
Source text: as §1, §2

[3] = test system: foxtail, giant; experiment: Test A preemergence; format: in vivo, Setaria faberii; conditions: 0 to 100 scale
Source text: as §1, §2

[4] = test system: morningglory; experiment: Test A preemergence; format: in vivo, Ipomoea spp.; conditions: 0 to 100 scale
Source text: as §1, §2

[5] = test system: pigweed; experiment: Test A preemergence; format: in vivo, Amaranthus retroflexus; conditions: 0 to 100 scale
Source text: as §1, §2

[6] = test system: velvetleaf; experiment: Test A preemergence; format: in vivo, Abutilon theophrasti; conditions: 0 to 100 scale
Source text: as §1, §2

[7] = test system: wheat; experiment: Test A preemergence; format: in vivo, Triticum aestivum; conditions: 0 to 100 scale
Source text: as §1, §2

[8] = test system: corn; experiment: Test A preemergence; format: in vivo, Zea mays; conditions: 0 to 100 scale
Source text: as §1, §2

[9] = test system: barnyardgrass; experiment: Test A postemergence; format: in vivo, Echinochloa crus-galli; conditions: Postemergence
Source text: as §1, §2

[10] = test system: crabgrass, large; experiment: Test A postemergence; format: in vivo, Digitaria sanguinalis
Source text: as §1, §2

[11] = test system: foxtail, giant; experiment: Test A postemergence; format: in vivo, Setaria faberii
Source text: as §1, §2

[12] = test system: morningglory; experiment: Test A postemergence; format: in vivo, Ipomoea spp.
Source text: as §1, §2

[13] = test system: pigweed; experiment: Test A postemergence; format: in vivo, Amaranthus retroflexus
Source text: as §1, §2

[14] = test system: velvetleaf; experiment: Test A postemergence; format: in vivo, Abutilon theophrasti
Source text: as §1, §2

[15] = test system: wheat; experiment: Test A postemergence; format: in vivo, Triticum aestivum
Source text: as §1, §2

[16] = test system: corn; experiment: Test A postemergence; format: in vivo, Zea mays
Source text: as §1, §2

[17] = Preemergence, 500 g ai/ha, 0 no effect, 100 complete control
[18] = preemergence, 125 g ai/ha, visual injury, approx. 10 days
[19] = 125 g ai/ha, 0 to 100 scale, 0 no effect, 100 complete control
[20] = 500 g ai/ha, visual rating after approx. 10 days, 0 to 100 scale (0 no effect, 100 complete control)
[21] = Postemergence, 500 g ai/ha, visual rating after approx. 10 days, 0 to 100 scale (0 no effect, 100 complete control)
[22] = postemergence, 125 g ai/ha, about 10 days, visual rating on 0 to 100 scale (0 no effect, 100 complete control)
[23] = Preemergence, 1000 g ai/ha, 0 no effect, 100 complete control
[24] = 1000 g ai/ha, visual rating after approx. 10 days, 0 to 100 scale (0 no effect, 100 complete control)
[25] = Postemergence, 1000 g ai/ha, visual rating after approx. 10 days, 0 to 100 scale (0 no effect, 100 complete control)
[26] = Postemergence, 125 g ai/ha, 0 to 100 scale, 0 no effect, 100 complete control

Row | Structure (SMILES) | Barnyardgrass plant response rating [1, 17] | Barnyardgrass plant response rating [1, 18] | Foxtail, Giant plant response rating [3, 17] | Morningglory plant response rating [4, 17] | Morningglory plant response rating [4, 18] | Pigweed plant response rating [5, 17] | Velvetleaf plant response rating [6, 17] | Wheat plant response rating [7, 18] | Corn plant response rating [8, 18] | Barnyardgrass plant response rating [9, 19] | Barnyardgrass plant response rating [9, 20] | Crabgrass, Large plant response rating [10, 21] | Crabgrass, Large plant response rating [10, 22] | Foxtail, Giant plant response rating [11, 21] | Foxtail, Giant plant response rating [11, 22] | Morningglory plant response rating [12, 21] | Morningglory plant response rating [12, 22] | Pigweed plant response rating [13, 21] | Pigweed plant response rating [13, 22] | Velvetleaf plant response rating [14, 21] | further results
1 | Cc1cc(C(=O)NCC(F)(F)C(F)(F)F)nn1Cc1cccc(C(F)(F)F)c1 [Compound 8] | 0 | 0 | 0 | 0 | 0 | 10 | 0 | 0 | 0 | 0 | 10 | 20 | 10 | 20 | 10 | 100 | 80 | 40 | 10 | 10 | Crabgrass, Large plant response rating [2, 17]: 0; Crabgrass, Large plant response rating [2, 18]: 0; Foxtail, Giant plant response rating [3, 18]: 0; Pigweed plant response rating [5, 18]: 0; Velvetleaf plant response rating [6, 18]: 0; Corn plant response rating [8, 17]: 0; Wheat plant response rating [15, 21]: 0; Wheat plant response rating [15, 22]: 0; Corn plant response rating [16, 21]: 0; Corn plant response rating [16, 22]: 0
2 | Cc1cc(C(=O)NC2CC2)nn1Cc1ccc(F)c(C(F)(F)F)c1 [Compound 11] | 50 | 10 | 60 | 30 | 10 | 100 | 20 | 0 | 0 | 0 | 10 | 40 | 20 | 30 | 10 | 80 | 70 | 100 | 60 | 40 | Crabgrass, Large plant response rating [2, 17]: 90; Crabgrass, Large plant response rating [2, 18]: 60; Foxtail, Giant plant response rating [3, 18]: 20; Pigweed plant response rating [5, 18]: 60; Velvetleaf plant response rating [6, 18]: 0; Corn plant response rating [8, 17]: 0; Velvetleaf plant response rating [14, 22]: 30; Wheat plant response rating [15, 21]: 0; Wheat plant response rating [15, 22]: 0; Corn plant response rating [16, 21]: 20; Corn plant response rating [16, 22]: 0
3 | Cc1cc(C(=O)NCC(F)(F)F)nn1Cc1ccc(F)c(C(F)(F)F)c1 [Compound 12] | 30 | 0 | 60 | 10 | 0 | 100 | 0 | 0 | 0 | 10 | 20 | 50 | 30 | 30 | 20 | 90 | 50 | 100 | 80 | 50 | Crabgrass, Large plant response rating [2, 17]: 60; Crabgrass, Large plant response rating [2, 18]: 40; Foxtail, Giant plant response rating [3, 18]: 10; Pigweed plant response rating [5, 18]: 70; Velvetleaf plant response rating [6, 18]: 0; Corn plant response rating [8, 17]: 0; Velvetleaf plant response rating [14, 22]: 40; Wheat plant response rating [15, 21]: 0; Wheat plant response rating [15, 22]: 0; Corn plant response rating [16, 21]: 20; Corn plant response rating [16, 22]: 10
4 | Cc1cc(C(=O)NC2CC2)nn1Cc1cc(F)cc(C(F)(F)F)c1 [Compound 14] | 10 | 0 | 90 | 20 | 0 | 100 | 0 | 0 | 0 | 0 | 10 | 40 | 20 | 20 | 0 | 80 | 50 | 70 | 50 | 30 | Crabgrass, Large plant response rating [2, 17]: 90; Crabgrass, Large plant response rating [2, 18]: 10; Foxtail, Giant plant response rating [3, 18]: 10; Pigweed plant response rating [5, 18]: 100; Velvetleaf plant response rating [6, 18]: 0; Corn plant response rating [8, 17]: 0; Velvetleaf plant response rating [14, 22]: 20; Wheat plant response rating [15, 21]: 0; Wheat plant response rating [15, 22]: 0; Corn plant response rating [16, 21]: 10; Corn plant response rating [16, 22]: 0
5 | CCNC(=O)c1cc(CC)n(Cc2cccc(C(F)(F)F)c2)n1 [Compound 17] | – | – | – | – | – | – | – | – | – | – | – | – | – | – | – | – | – | – | – | – | Barnyardgrass plant response rating [1, 23]: 80; Crabgrass, Large plant response rating [2, 23]: 100; Foxtail, Giant plant response rating [3, 23]: 100; Morningglory plant response rating [4, 23]: 80; Pigweed plant response rating [5, 23]: 100; Velvetleaf plant response rating [6, 23]: 100; Wheat plant response rating [7, 23]: 20; Corn plant response rating [8, 23]: 10; Barnyardgrass plant response rating [9, 24]: 40; Crabgrass, Large plant response rating [10, 25]: 90; Foxtail, Giant plant response rating [11, 25]: 90; Morningglory plant response rating [12, 25]: 100; Pigweed plant response rating [13, 25]: 90; Velvetleaf plant response rating [14, 25]: 100; Wheat plant response rating [15, 25]: 30; Corn plant response rating [16, 25]: 40
6 | Cc1cc(C(=O)NC2CC2)nn1Cc1cccc(OC(F)(F)F)c1 [Compound 21] | 90 | 0 | 100 | 40 | 0 | 100 | 50 | 0 | 0 | 0 | 60 | 80 | 30 | 50 | 20 | 90 | 80 | 100 | 90 | 40 | Velvetleaf plant response rating [14, 22]: 0; Wheat plant response rating [15, 21]: 10; Wheat plant response rating [15, 22]: 0; Corn plant response rating [16, 21]: 50; Corn plant response rating [16, 22]: 10
7 | CCc1cc(C(=O)NCCC(F)(F)F)nn1Cc1cccc(C(F)(F)F)c1 [Compound 51] | – | – | – | – | – | – | – | – | – | – | – | – | – | – | – | – | – | – | – | – | Barnyardgrass plant response rating [1, 23]: 10; Crabgrass, Large plant response rating [2, 23]: 20; Foxtail, Giant plant response rating [3, 23]: 80; Morningglory plant response rating [4, 23]: 10; Pigweed plant response rating [5, 23]: 10; Velvetleaf plant response rating [6, 23]: 0; Wheat plant response rating [7, 23]: 0; Barnyardgrass plant response rating [9, 24]: 10; Crabgrass, Large plant response rating [10, 25]: 30; Foxtail, Giant plant response rating [11, 25]: 10; Morningglory plant response rating [12, 25]: 100; Pigweed plant response rating [13, 25]: 50; Velvetleaf plant response rating [14, 25]: 100; Wheat plant response rating [15, 25]: 20; Corn plant response rating [16, 25]: 10
8 | O=C(NCC(F)(F)F)c1cc(CCCl)n(Cc2ccnc(C(F)(F)F)c2)n1 [Compound 193] | – | – | – | – | – | – | – | – | – | – | – | – | – | – | – | – | – | – | – | – | Morningglory plant response rating [12, 26]: 80; Pigweed plant response rating [13, 26]: 100; Velvetleaf plant response rating [14, 26]: 70; Wheat plant response rating [15, 26]: 0
